From ChEMBL document CHEMBL5303304, “EUbOPEN Chemogenomics Library - IncuCyte” (2023)

Assays:
Assay type in all cases: toxicity, cell-based
HEK-293T = test: Incucyte cell viability with HEK293T; settings: human, 10 µM, compound concentration 10 uM
Fibroblast = test: Incucyte cell viability with human fibroblast; settings: 10 µM, compound concentration 10 uM
U2OS = test: Incucyte cell viability with U2OS; settings: human, 10 µM, compound concentration 10 uM
Also: unitless GR value; below 1 slowed growth and below 0 cell loss.

Row | SMILES | Growth Rate (HEK-293T; 0 h, replicate number 2) | Growth Rate (HEK-293T; 6 h, replicate number 1) | Growth Rate (HEK-293T; 6 h, replicate number 2) | Growth Rate (HEK-293T; 12 h, replicate number 2) | Growth Rate (HEK-293T; 24 h, replicate number 2) | Growth Rate (Fibroblast; 0 h, replicate number 2) | Growth Rate (Fibroblast; 6 h, replicate number 2) | Growth Rate (Fibroblast; 12 h, replicate number 2) | Growth Rate (Fibroblast; 18 h, replicate number 1) | Growth Rate (U2OS; 0 h, replicate number 1) | Growth Rate (U2OS; 0 h, replicate number 2) | Growth Rate (U2OS; 6 h, replicate number 1) | Growth Rate (U2OS; 6 h, replicate number 2) | Growth Rate (U2OS; 12 h, replicate number 1) | Growth Rate (U2OS; 18 h, replicate number 1) | Growth Rate (U2OS; 18 h, replicate number 2) | Growth Rate (U2OS; 24 h, replicate number 2) | Growth Rate (Fibroblast; 6 h, replicate number 1) | Growth Rate (Fibroblast; 12 h, replicate number 1) | Growth Rate (Fibroblast; 24 h, replicate number 1) | other results
1 | C=CC[C@@H]1/C=C(\C)C[C@H](C)C[C@H](OC)[C@H]2O[C@@](O)(C(=O)C(=O)N3CCCC[C@H]3C(=O)O[C@H](/C(C)=C/[C@@H]3CC[C@@H](O)[C@H](OC)C3)[C@H](C)[C@@H](O)CC1=O)[C@H](C)C[C@@H]2OC.O [TACROLIMUS] | -0.12 | -0.24 | 0.77 | 0.99 | 0.99 | -0.85 | -0.26 | 0.85 | 0.96 | 0.59 | -1 | 0.95 | 0.5 | 0.75 | 0.81 | 0.87 | 0.85 |  |  |  | Growth Rate (HEK-293T; 12 h, replicate number 1): 0.41; Growth Rate (HEK-293T; 18 h, replicate number 1): 0.78; Growth Rate (HEK-293T; 18 h, replicate number 2): 0.82; Growth Rate (HEK-293T; 24 h, replicate number 1): 0.87; Growth Rate (U2OS; 12 h, replicate number 2): 0.7
2 | COc1cc(N2CCC(N3CCN(C)CC3)CC2)ccc1Nc1ncc(Cl)c(Nc2ccccc2S(=O)(=O)C(C)C)n1 [TAE-684] |  | -0.99 | -0.4 | -0.16 | 0.17 |  | -0.99 | -0.28 | 0.29 |  | -0.18 | -0.18 | 0.84 | -0.09 | -0.06 | 0.27 | 0.07 | 0.37 | -0.98 | -0.12 | Growth Rate (HEK-293T; 12 h, replicate number 1): -0.93; Growth Rate (HEK-293T; 18 h, replicate number 1): -0.8; Growth Rate (HEK-293T; 18 h, replicate number 2): 0.06; Growth Rate (HEK-293T; 24 h, replicate number 1): -0.72; Growth Rate (Fibroblast; 18 h, replicate number 2): -0.21; Growth Rate (Fibroblast; 24 h, replicate number 2): -0.32; Growth Rate (U2OS; 12 h, replicate number 2): 0.29; Growth Rate (U2OS; 24 h, replicate number 1): -0.15
3 | CCc1nc(-c2cccc(C)c2)c(-c2ccnc(NC(=O)c3ccccc3)c2)s1 [TAK-715] |  | 0.48 | 0.96 |  | 0.81 |  | 0.83 |  |  | -1 | 0.2 | 0.63 |  |  | -0.35 | 0.87 | 0.92 |  |  |  | Growth Rate (HEK-293T; 24 h, replicate number 1): 0.92; Growth Rate (Fibroblast; 0 h, replicate number 1): -0.56; Growth Rate (U2OS; 12 h, replicate number 2): 0.79
4 | CC/C(=C(\c1ccccc1)c1ccc(OCCN(C)C)cc1)c1ccccc1.O=C(O)CC(O)(CC(=O)O)C(=O)O [TAMOXIFEN CITRATE] | -0.98 | 0.14 | 0.13 | 0.48 | 0.52 |  | 0.32 | -0.01 | -0.15 | -0.22 | 0.89 | 0.66 | 1 | 0.8 | 0.84 | 0.88 | 0.95 | 0.1 | -0.13 | -0.08 | Growth Rate (HEK-293T; 12 h, replicate number 1): 0.4; Growth Rate (HEK-293T; 18 h, replicate number 1): 0.48; Growth Rate (HEK-293T; 18 h, replicate number 2): 0.45; Growth Rate (HEK-293T; 24 h, replicate number 1): 0.56; Growth Rate (Fibroblast; 18 h, replicate number 2): -0.19; Growth Rate (Fibroblast; 24 h, replicate number 2): -0.21; Growth Rate (U2OS; 12 h, replicate number 2): 0.93; Growth Rate (U2OS; 24 h, replicate number 1): 0.91
5 | Cn1nccc1Nc1nccc(-c2cc3c(s2)C(C)(C)N(CCN2CCOCC2)C3=O)n1 [TEMUTERKIB] |  |  | 0.33 | 0.76 | 1 | -0.1 |  |  | 0.27 | -0.62 | -0.42 | 0.47 | 0.51 | 0.66 |  | 0.82 | 0.9 |  | -0.93 | 0.12 | Growth Rate (HEK-293T; 0 h, replicate number 1): 0.39; Growth Rate (Fibroblast; 0 h, replicate number 1): -0.63
6 | Cn1cc(C(=O)O)c2ccc(N3CCC(OCc4c(-c5c(Cl)cccc5Cl)noc4C4CC4)CC3)cc21 [TERN-101] |  | 0.97 |  |  |  | 0.89 | 0.73 |  | 0.62 | -0.23 |  | 0.86 | -0.83 | 0.74 | 0.87 |  |  | -0.66 | 0.61 | 0.37 | Growth Rate (Fibroblast; 18 h, replicate number 2): 0.97; Growth Rate (Fibroblast; 24 h, replicate number 2): 0.87; Growth Rate (U2OS; 12 h, replicate number 2): 0.96; Growth Rate (U2OS; 24 h, replicate number 1): 0.91
7 | CCO[C@@H](Cc1ccc(OCCc2ccc(OS(C)(=O)=O)cc2)cc1)C(=O)O [TESAGLITAZAR] | -0.46 | 1 | 0.96 | 0.68 | 0.7 | 0.24 | 0.72 | 0.56 | 0.64 |  | 0.8 |  | 0.99 |  | 0.98 |  |  | 0.95 |  | 0.99 | Growth Rate (HEK-293T; 0 h, replicate number 1): 0.24; Growth Rate (HEK-293T; 18 h, replicate number 2): 0.85; Growth Rate (Fibroblast; 0 h, replicate number 1): 0.92; Growth Rate (Fibroblast; 18 h, replicate number 2): 0.87; Growth Rate (U2OS; 24 h, replicate number 1): 0.87
8 | O=C(O)Cc1cc(I)c(Oc2ccc(O)c(I)c2)c(I)c1 [TIRATRICOL] | -0.35 |  |  | 0.66 | 0.69 |  | 0.26 | 0.55 |  |  |  | 0.77 |  | -0.73 | 0.97 | 0.96 | 0.9 | 0.72 |  | 0.92 | Growth Rate (HEK-293T; 0 h, replicate number 1): 0.25; Growth Rate (HEK-293T; 18 h, replicate number 1): 0.92; Growth Rate (HEK-293T; 18 h, replicate number 2): 0.7; Growth Rate (HEK-293T; 24 h, replicate number 1): 1; Growth Rate (Fibroblast; 0 h, replicate number 1): 0.68; Growth Rate (Fibroblast; 18 h, replicate number 2): 0.7; Growth Rate (Fibroblast; 24 h, replicate number 2): 0.76
9 | Cc1cc(Nc2cc(N)ncn2)c(=O)n2c1C(=O)NC21CCCCC1 [TOMIVOSERTIB] | 0.56 | 0.32 |  |  |  | -1 | -0.8 |  |  | 0.95 | 0.6 |  | 0.49 | 0.96 | 0.93 | 0.92 | 0.85 | 0.58 | -1 |  | Growth Rate (U2OS; 24 h, replicate number 1): 0.88
10 | CC1CCN(c2ccnc(NCc3cn(C)cn3)n2)CC1 [TP-040] |  |  | 0.85 |  |  | -0.66 | 0.66 | 0.76 | 0.71 | -1 | 0.69 |  | 0.76 |  |  | 0.86 | 0.84 | 0.15 | 0.71 | 0.65 | Growth Rate (U2OS; 12 h, replicate number 2): 0.8
11 | CN1CCN(c2ccnc(NCCc3ccccc3)n2)CC1 [TP-040n] |  | 0.2 | 0.09 | 0.3 | 0.4 |  |  | 0.9 | 0.74 |  |  |  | -0.72 | 1 | 0.94 | 0.96 | 0.87 |  | 0.8 | 0.58 | Growth Rate (HEK-293T; 12 h, replicate number 1): 0.39; Growth Rate (HEK-293T; 18 h, replicate number 1): 0.42; Growth Rate (HEK-293T; 18 h, replicate number 2): 0.35; Growth Rate (HEK-293T; 24 h, replicate number 1): 0.41; Growth Rate (Fibroblast; 0 h, replicate number 1): -1; Growth Rate (Fibroblast; 18 h, replicate number 2): 0.63; Growth Rate (Fibroblast; 24 h, replicate number 2): 0.53
12 | CC(=O)Nc1cccc(-n2c(=O)n(C3CC3)c(=O)c3c(Nc4ccc(I)cc4F)n(C)c(=O)c(C)c32)c1 [TRAMETINIB] | -0.7 |  | 0.92 | 0.78 |  |  |  |  |  | 0.34 | 0.61 | 0.99 | 0.66 | 0.58 | 0.53 | 0.85 | 0.74 | 0.65 |  |  | Growth Rate (HEK-293T; 0 h, replicate number 1): 0.04; Growth Rate (U2OS; 12 h, replicate number 2): 0.91; Growth Rate (U2OS; 24 h, replicate number 1): 0.9
13 | CN1CCN(c2ccc(Nc3ncc4cc5n(c4n3)C3(CCCCC3)CNC5=O)nc2)CC1 [TRILACICLIB] |  |  |  |  | 0.99 |  |  |  |  | 0.26 |  | 0.29 |  |  | 0.92 |  | 0.98 |  |  |  | Growth Rate (HEK-293T; 0 h, replicate number 1): -0.98; Growth Rate (Fibroblast; 0 h, replicate number 1): -1; Growth Rate (U2OS; 24 h, replicate number 1): 0.84
14 | O=C(O)c1cc(F)c2nc(N3[C@@H]4CC[C@H]3C[C@@H](OCc3c(-c5ccccc5OC(F)(F)F)noc3C3CC3)C4)sc2c1 [TROPIFEXOR] | 0.6 |  |  |  |  | 0.33 | 0.98 |  | 0.63 |  |  | 0.63 |  | 0.99 |  |  |  |  | 0.31 | 0.97 | 
